The values that follow come from patent US20160052926A1, “NOVEL PYRIMIDINE AND PYRIDINE COMPOUNDS AND USAGE THEREOF” (HUTCHISON MEDIPHARMA LIMITED, priority 2013, published 2016).

Molecules are shown by their SMILES.

For one assay, the system named is KG-1. The assay can be described thus: Cellular Proliferation Assay (Cell Counting Kit-8), KG-1. As to conditions: Homo sapiens, KG1 cells, 72 hours. Type of assay: cell-based. The method, boiled down: (§1)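 Proliferation was read as OD at 450 nm after 1 h with CCK-8, following 72 h drug exposure at 37 °C, 5% CO2. Inhibition was calculated against cells in 0.5% DMSO minus medium blank, and the 50% point reported. The compound series (10–0.004 μM, pre-addition, in 5% DMSO) was added one day after plating KG-1, SNU-16 and RT-112 at 30,000, 5,000 and 1,000 cells/well respectively.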
(Tetrazolium assays rely on reduction of a dye to a coloured formazan, in cell work by metabolically active cells.)

In another assay the target is Recombinant human FGFR1 (Homo sapiens, UniProt P11362). The assay can be described thus: Transcreener Kinase Assay of FGFR1. The settings on record: read-out: FGFR1 (FP) IC50. Type of assay: biochemical.
Another assay has as its target Recombinant human FGFR2 (Homo sapiens, UniProt P21802). The assay can be described thus: Transcreener Kinase Assay of FGFR2. Type of assay: biochemical. As to conditions: read-out: FGFR2 (FP) IC50.
The target in a further assay is FGFR3 kinase (Homo sapiens, UniProt P22607). The assay can be described thus: Z-Lyte Kinase Assay of FGFR3. In kind it is biochemical. The method, boiled down: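 FRET peptide-cleavage format: 1 h kinase reaction at RT (25-30[…]), then 1 h protease development, then stop and dual-emission read (Ex400, Em445/520 nm). Working solutions: kinase 0.7 μg/ml, Tyr 4 peptide 4 μM, ATP 300 uM in 1.33× buffer; eight compound concentrations from 1 μM, 2% DMSO final.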

A further assay deals with RT-112. The assay can be described thus: Cellular Proliferation Assay (Cell Counting Kit-8), RT-112. Type of assay: cell-based. As to conditions: Homo sapiens, RT-112 cells, 72 hours. In outline:
as §1

In the next assay the test system is SNU-16. The assay can be described thus: Cellular Proliferation Assay (Cell Counting Kit-8), SNU-16. The settings on record: Homo sapiens, SNU-16 cells, 72 hours. Type of assay: cell-based. The method, boiled down: as §1

FGFR3 kinase, sequence (P22607 23-806): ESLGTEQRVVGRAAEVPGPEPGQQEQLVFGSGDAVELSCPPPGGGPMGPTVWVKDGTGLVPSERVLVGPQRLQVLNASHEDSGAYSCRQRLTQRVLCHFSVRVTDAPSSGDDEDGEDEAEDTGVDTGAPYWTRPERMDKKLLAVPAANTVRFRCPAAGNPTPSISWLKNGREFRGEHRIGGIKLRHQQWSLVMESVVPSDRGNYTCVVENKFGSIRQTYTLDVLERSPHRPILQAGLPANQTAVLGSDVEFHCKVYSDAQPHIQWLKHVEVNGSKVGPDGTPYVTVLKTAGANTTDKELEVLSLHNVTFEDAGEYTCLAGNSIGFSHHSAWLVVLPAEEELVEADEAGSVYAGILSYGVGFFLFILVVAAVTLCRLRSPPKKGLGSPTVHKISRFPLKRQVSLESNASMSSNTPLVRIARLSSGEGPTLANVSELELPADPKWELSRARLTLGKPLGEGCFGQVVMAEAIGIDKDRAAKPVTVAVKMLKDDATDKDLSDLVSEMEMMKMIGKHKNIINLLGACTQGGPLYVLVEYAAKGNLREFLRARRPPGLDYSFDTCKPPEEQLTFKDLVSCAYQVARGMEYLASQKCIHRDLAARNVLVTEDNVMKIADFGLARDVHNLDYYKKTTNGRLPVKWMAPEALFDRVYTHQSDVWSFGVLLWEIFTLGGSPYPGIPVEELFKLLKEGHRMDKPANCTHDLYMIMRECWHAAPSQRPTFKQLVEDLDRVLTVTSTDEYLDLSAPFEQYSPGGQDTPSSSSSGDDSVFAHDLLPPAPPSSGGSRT
Recombinant human FGFR1, sequence (P11362 22-822): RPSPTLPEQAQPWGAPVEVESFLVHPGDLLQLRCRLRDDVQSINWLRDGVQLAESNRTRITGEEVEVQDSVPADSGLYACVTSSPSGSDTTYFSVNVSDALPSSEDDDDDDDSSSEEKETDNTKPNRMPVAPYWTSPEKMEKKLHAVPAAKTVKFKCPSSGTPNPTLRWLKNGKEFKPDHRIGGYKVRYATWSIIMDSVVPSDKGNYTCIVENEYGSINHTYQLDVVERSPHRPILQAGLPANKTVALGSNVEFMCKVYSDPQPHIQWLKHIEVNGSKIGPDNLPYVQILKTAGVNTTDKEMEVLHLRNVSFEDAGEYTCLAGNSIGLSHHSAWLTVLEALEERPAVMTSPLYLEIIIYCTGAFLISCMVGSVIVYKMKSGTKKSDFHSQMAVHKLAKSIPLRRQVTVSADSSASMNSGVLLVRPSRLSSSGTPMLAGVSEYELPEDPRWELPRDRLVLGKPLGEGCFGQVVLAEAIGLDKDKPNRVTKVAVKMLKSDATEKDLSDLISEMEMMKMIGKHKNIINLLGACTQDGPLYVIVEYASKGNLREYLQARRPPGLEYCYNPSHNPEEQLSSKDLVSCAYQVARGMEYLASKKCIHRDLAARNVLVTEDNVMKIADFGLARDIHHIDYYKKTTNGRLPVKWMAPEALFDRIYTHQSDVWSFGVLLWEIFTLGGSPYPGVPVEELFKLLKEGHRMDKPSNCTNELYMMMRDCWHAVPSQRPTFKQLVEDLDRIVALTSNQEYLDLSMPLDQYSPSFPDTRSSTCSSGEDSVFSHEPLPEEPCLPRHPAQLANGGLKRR
Recombinant human FGFR2, sequence (P21802 22-821): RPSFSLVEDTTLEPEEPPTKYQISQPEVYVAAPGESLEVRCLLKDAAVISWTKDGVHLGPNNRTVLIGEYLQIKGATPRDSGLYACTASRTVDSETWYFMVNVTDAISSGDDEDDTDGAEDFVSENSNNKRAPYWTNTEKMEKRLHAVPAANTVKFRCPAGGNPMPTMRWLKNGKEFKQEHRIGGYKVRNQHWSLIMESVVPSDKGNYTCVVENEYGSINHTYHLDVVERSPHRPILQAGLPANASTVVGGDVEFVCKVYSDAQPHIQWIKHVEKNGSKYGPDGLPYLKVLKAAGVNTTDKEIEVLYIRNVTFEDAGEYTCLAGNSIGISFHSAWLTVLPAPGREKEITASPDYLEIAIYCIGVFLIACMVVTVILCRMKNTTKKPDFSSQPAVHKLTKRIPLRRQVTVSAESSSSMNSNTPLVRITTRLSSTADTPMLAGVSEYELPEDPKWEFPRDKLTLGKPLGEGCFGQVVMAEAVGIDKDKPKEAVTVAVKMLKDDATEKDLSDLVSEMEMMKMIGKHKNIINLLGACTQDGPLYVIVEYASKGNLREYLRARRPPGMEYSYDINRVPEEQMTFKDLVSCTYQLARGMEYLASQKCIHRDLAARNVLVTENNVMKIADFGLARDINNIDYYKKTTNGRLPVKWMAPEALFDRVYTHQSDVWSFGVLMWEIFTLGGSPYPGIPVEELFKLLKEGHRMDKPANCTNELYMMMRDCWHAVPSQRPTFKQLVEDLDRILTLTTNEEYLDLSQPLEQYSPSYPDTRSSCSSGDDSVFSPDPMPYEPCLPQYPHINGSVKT

Usually IC50 stands for the concentration at which inhibition is half-maximal. Take `CNC(=O)c1cc(CCc2cnc(Nc3ccc4nnc(COC)n4c3)nc2)c(F)c(OC)c1` [Compound 72]: the IC50 in the assay on KG-1 turned out to be 195 nM; on Recombinant human FGFR1 it was 58 nM; on Recombinant human FGFR2, 24 nM; against FGFR3 kinase, 38 nM; in the assay with RT-112 it was 554 nM; in the assay on SNU-16 it was 94 nM.

Regarding `CNC(=O)c1cc(CCc2cnc(Nc3cnn(C[C@H](C)O)c3)nc2)c(F)c(OC)c1` [Compound 32], the IC50 came out at 57 nM in the assay with KG-1; 18 nM on Recombinant human FGFR1; 6 nM on Recombinant human FGFR2; 5 nM against FGFR3 kinase; 104 nM in the assay with RT-112; 30 nM in the assay with SNU-16.

For the molecule `CCN1CC[C@@H](n2cc(Nc3ncc(CCc4cc(C(=O)NC)cc(OC)c4F)cn3)cn2)C1` [Compound 171], the IC50 amounted to 128 nM in the assay on KG-1; 43 nM at Recombinant human FGFR1; 41 nM on Recombinant human FGFR2; 50 nM against FGFR3 kinase; 655 nM in the assay on RT-112; 48 nM in the assay with SNU-16.

Regarding `CNC(=O)c1cc(CCc2cnc(Nc3cnn(C)c3C)nc2)c(F)c(OC)c1` [Compound 105], the IC50 with KG-1 was 201 nM; on Recombinant human FGFR1 it was 31 nM; on Recombinant human FGFR2, 11 nM; against FGFR3 kinase, 30 nM; in the assay with RT-112, 428 nM; with SNU-16 it was 48 nM.

Take `CNC(=O)c1cc(CCc2cnc(Nc3cnn(-c4ccc(C)nc4)c3)nc2)c(F)c(OC)c1` [Compound 134]: the IC50 in the assay with KG-1 was 33 nM; on Recombinant human FGFR1, 71 nM; on Recombinant human FGFR2, 8 nM; against FGFR3 kinase it was 24 nM; in the assay on RT-112, 84 nM; with SNU-16 it was 34 nM.

Take `CNC(=O)c1cc(CCc2cnc(Nc3cnn(CCCN4CCCC4)c3)nc2)c(F)c(OC)c1` [Compound 138]: the IC50 with KG-1 came to 617 nM; on Recombinant human FGFR1, 9 nM; at Recombinant human FGFR2, 7 nM; on FGFR3 kinase, 8 nM; in the assay on RT-112 it was 202 nM; in the assay with SNU-16, 32 nM.

As to `CNC(=O)c1cc(CCc2cnc(Nc3cnn(CC(C)C)c3)nc2)c(F)c(OC)c1` [Compound 118], the IC50 in the assay on KG-1 amounted to 26 nM; at Recombinant human FGFR1, 23 nM; on Recombinant human FGFR2, 12 nM; on FGFR3 kinase it was 34 nM; in the assay with RT-112, 220 nM; in the assay with SNU-16, 29 nM.

`CNC(=O)c1cc(COc2cnc(Nc3ccc(N4C[C@@H](C)N[C@@H](C)C4)nc3)nc2)c(Cl)c(OC)c1` [Compound 197]: the IC50 with KG-1 was 26 nM; on Recombinant human FGFR1, 8 nM; on Recombinant human FGFR2, 7 nM; at FGFR3 kinase, 9 nM; in the assay on RT-112 it was 25 nM; with SNU-16, 8 nM.

For the molecule `CNC(=O)c1cc(CCc2cnc(Nc3cnn(C(C)C)c3)nc2)c(F)c(OC)c1` [Compound 112], the IC50 came out at 18 nM in the assay with KG-1; 9 nM on Recombinant human FGFR1; 7 nM at Recombinant human FGFR2; 8 nM against FGFR3 kinase; 36 nM in the assay with RT-112; 17 nM in the assay with SNU-16.

On to `CNC(=O)c1cc(CCc2cnc(Nc3cnn(CC4CCN(C)CC4)c3)nc2)c(F)c(OC)c1` [Compound 137], for which the IC50 in the assay with KG-1 was found to be 319 nM; at Recombinant human FGFR1 it was 12 nM; on Recombinant human FGFR2, 6 nM; against FGFR3 kinase, 7 nM; in the assay on RT-112, 86 nM; in the assay on SNU-16, 29 nM.

Regarding `CNC(=O)c1cc(CCc2cnc(Nc3cnn([C@@H]4CCCNC4)c3)nc2)c(F)c(OC)c1` [Compound 159, (R)-4-fluoro-3-methoxy-N-methyl-5-(2-(2-(1-(piperidin-3-yl)-1H-pyrazol-4-ylamino)pyrimidin-5-yl)ethyl)benzamide], the IC50 turned out to be 290 nM in the assay with KG-1; 8 nM at Recombinant human FGFR1; 6 nM at Recombinant human FGFR2; 8 nM against FGFR3 kinase; 759 nM with RT-112; 75 nM with SNU-16.

For `CNC(=O)c1cc(CCc2cnc(Nc3cnn(CCOC)c3)nc2)c(Cl)c(OC)c1` [Compound 127], the IC50 in the assay on KG-1 came out at 22 nM; on Recombinant human FGFR1, 9 nM; at Recombinant human FGFR2 it was 5 nM; on FGFR3 kinase, 9 nM; in the assay on RT-112 it was 66 nM; in the assay on SNU-16 it was 20 nM.

Turning to `CNC(=O)c1cc(COc2cnc(Nc3ccc(N4C[C@@H](C)N[C@@H](C)C4)cc3)nc2)c(F)c(OC)c1` [Compound 192], the IC50 in the assay with KG-1 amounted to 8 nM; at Recombinant human FGFR1 it was 12 nM; at Recombinant human FGFR2, 6 nM; at FGFR3 kinase, 8 nM; in the assay on RT-112 it was 14 nM; in the assay with SNU-16, 2 nM.

Take `CNC(=O)c1cc(CCc2cnc(Nc3cnn(C4CC4)c3)nc2)c(F)c(OC)c1` [Compound 107]: the IC50 was 28 nM in the assay with KG-1; 10 nM on Recombinant human FGFR1; 7 nM on Recombinant human FGFR2; 14 nM on FGFR3 kinase; 90 nM in the assay with RT-112; 26 nM with SNU-16.

For the molecule `CNC(=O)c1cc(CCc2cnc(Nc3ccnc(OC)c3)nc2)c(F)c(OC)c1` [Compound 62], the IC50 with KG-1 is 46 nM; at Recombinant human FGFR1 it was 20 nM; on Recombinant human FGFR2, 9 nM; against FGFR3 kinase, 33 nM; in the assay with RT-112 it was 152 nM; in the assay with SNU-16 it was 49 nM.

Turning to `CNC(=O)c1cc(CCc2cnc(Nc3ccc(N4CCOCC4)cc3)nc2)c(F)c(OC)c1` [Compound 11], the IC50 in the assay on KG-1 was 40 nM; at Recombinant human FGFR1, 18 nM; at Recombinant human FGFR2, 9 nM; on FGFR3 kinase, 7 nM; in the assay on RT-112, 34 nM; with SNU-16, 28 nM.

As to `CCn1cc(Nc2ncc(CCc3c(F)c(C(=O)NC)cc(OC)c3Cl)cn2)cn1` [Compound 80], the IC50 in the assay with KG-1 was 33 nM; at Recombinant human FGFR1, 24 nM; at Recombinant human FGFR2, 16 nM; on FGFR3 kinase it was 19 nM; with RT-112, 24 nM; with SNU-16, 39 nM.

Consider `CONC(=O)c1cc(CCc2cnc(Nc3ccc4nccn4c3)nc2)cc(OC)c1` [Compound 65], for which the IC50 in the assay on KG-1 worked out at 203 nM; at Recombinant human FGFR1, 48 nM; at Recombinant human FGFR2, 28 nM; against FGFR3 kinase, 112 nM; in the assay with RT-112, 296 nM; with SNU-16 it was 55 nM.

With `CNC(=O)c1cc(CCc2cnc(Nc3ccc(OC)nc3)nc2)c(F)c(OC)c1` [Compound 30], the IC50 was 55 nM with KG-1; 29 nM on Recombinant human FGFR1; 10 nM on Recombinant human FGFR2; 40 nM against FGFR3 kinase; 241 nM in the assay on RT-112; 68 nM with SNU-16.

With `CNC(=O)c1cc(CCc2cnc(Nc3cnn(C(F)F)c3)nc2)c(F)c(OC)c1` [Compound 116], the IC50 with KG-1 was 20 nM; on Recombinant human FGFR1, 27 nM; at Recombinant human FGFR2, 10 nM; against FGFR3 kinase it was 28 nM; with RT-112 it was 19 nM; in the assay with SNU-16 it was 45 nM.

`CNC(=O)c1cc(CCc2cnc(Nc3ccn4ccnc4c3)nc2)c(F)c(OC)c1` [Compound 66]: the IC50 is 194 nM in the assay on KG-1; 18 nM on Recombinant human FGFR1; 7 nM on Recombinant human FGFR2; 25 nM at FGFR3 kinase; 201 nM in the assay on RT-112; 55 nM in the assay with SNU-16.
